Source: patent publication US9119877B2, “Therapeutic combination comprising a Cdc7 inhibitor and an anti-neoplastic agent” (NERVIANO MEDICAL SCIENCES S.R.L., priority 2010, dated 2015)
Like-named read-outs stand apart in the source and are kept apart here. One block for each molecule: values may come before it.

Assays:
[1] = system: L-363 human Multiple Myeloma cell line; assay: cell proliferation (CellTiterGlo), single agents and combinations, L-363; format: cell-based
Description: (§1) Materials and methods. Exponentially growing human breast cancer (Mcf-7), human ovarian cancer (A-2780), human multiple myeloma (L-363), human colorectal cancer (HCT-116) and human melanoma (A-375) cell lines were seeded and incubated at 37° C. in a humidified 5% CO2 atmosphere. Drugs were added to the experimental culture, and incubations were carried out at 37° C. for 72 hours in the dark. Scalar doses of the compound of formula (I) and antineoplastic agents were added to the medium starting from 24 hours after seeding. Drug solutions were prepared immediately before use. At the end of treatment, cell proliferation was determined by an intracellular adenosine triphosphate monitoring system (CellTiterGlo-Promega) using an Envision (PerkinElmer) reader. Inhibitory activity was evaluated comparing treated versus control data using the Assay Explorer (MDL) program. The dose inhibiting 50% of cell growth was calculated using sigmoidal interpolation curve. Combination indices (C.I.) were calculated using a proprietary computer program for multiple drug effect analysis based on the equation of Chou-Talalay (Adv Enzyme Regul 1984;22:27-55) for mutually nonexclusive drugs, where a C.I. of <1 indicates a more than additive effect: C.I.: >3 strong antagonism; 1.3-3 antagonism; 1.2-0.8 additivity; 0.8-0.3 synergism; <0.3 strong synergism.

[2] = female, CD1 Nu/Nu, mouse, in vivo
Description: (§2) CD1 Nu/Nu female mice were obtained from Charles River, Italy, The animals were maintained in cages using steam autoclaved (sterile) bedding, sterilized diet and water were offered ad libitum. MX-1 human breast carcinoma (from American Type Culture Collection) was maintained by subcutaneous (SC) transplantation in athymic mice. Viable MX-1 tumor fragments (weighting 20-30 mg) were obtained aseptically from stock tumors and transplanted subcutaneously by trocar implantation into the left flank of athymic nude mice. Animals were examined regularly for the appearance of tumors.
(§3) Docetaxel was administered by intravenous route at the dose of 5 mg/kg on days 1, 8, 15. […] Tumor growth and body weight were measured every 3 days, Tumor growth was assessed by caliper. The two diameters were recorded and the tumor weight was calculated according to the following formula: length (mm)×width^2/2. The effect of the antitumor treatment was evaluated as the delay in the onset of an exponential growth of the tumor (see for references Anticancer drugs 7:437-60, 1996). This delay (T-C value) was defined as the difference of time (in days) required for the treatment group (T) and the control group (C) tumors to reach a predetermined size (1 g). Toxicity was evaluated on the basis of body weight reduction.

[3] = system: HCT116 human colon carcinoma cell line; assay: cell proliferation (CellTiterGlo), single agents and combinations, HCT116; format: cell-based
Description: (§4) Materials and methods. […] Drugs were added to the experimental culture, and incubations were carried out at 37° C. for 72 hours in the dark. […] Drug solutions were prepared immediately before use. At the end of treatment, cell proliferation was determined by an intracellular adenosine triphosphate monitoring system (CellTiterGlo-Promega) using an Envision (PerkinElmer) reader. Inhibitory activity was evaluated comparing treated versus control data using the Assay Explorer (MDL) program. The dose inhibiting 50% of cell growth was calculated using sigmoidal interpolation curve.

[4] = toxicity on the basis of body weight reduction, HCT-116 study with irinotecan; format: in vivo
Description: (§5) Balb, Nu/Nu male mice, from Harlan (Italy), were maintained in agreement with the European Communities Council Directive no. 86/609/EEC, in cages with paper filter cover, food and bedding sterilized and acidified water. Fragments of HCT-116 human colon cancer tumors were implanted subcutaneously. The treatment started when tumors were palpable. […] Irinotecan was administered by intravenous route at the dose of 45 mg/kg on days 1, 5, 9. […] Tumor growth was assessed by caliper.

[5] = toxicity on the basis of body weight reduction, MX-1 study with bevacizumab; format: in vivo
Description: (§6) Animals were examined regularly for the appearance of tumors. The treatment started when tumors were palpable. Compound of formula (I) was administered by oral route in a volume of 10 ml/kg at the daily dose of 20 mg/kg on days 2, 4, 6, 8, 10 and 12. Bevacizumab was administered by intravenous route at the dose of 20 mg/kg on days 1, 5, 9 and 13. When combined, compound of formula (I) was administered on days 2, 4, 6, 8, 10 and 12 and bevacizumab on days 1, 5, 9 and 13. […] Tumor growth was assessed by caliper.

[6] = system: HCT-116 human colon cancer tumors; assay: tumor growth delay, HCT-116 xenograft, combination with irinotecan; format: in vivo; conditions: HCT-116 in Balb Nu/Nu male mice, time to reach 1 g
Description: as §5

[7] = system: MX-1 human breast carcinoma; assay: tumor growth delay, MX-1 xenograft, combination with docetaxel; format: in vivo; conditions: MX-1 in CD1 Nu/Nu female mice, time to reach 1 g
Description: as §2, §3

[8] = system: Mcf-7 human breast adenocarcinoma cell line; assay: cell proliferation (CellTiterGlo), single agents and combinations, Mcf-7; format: cell-based
Description: as §4

[9] = system: A375 human melanoma cell line; assay: cell proliferation (CellTiterGlo), single agents and combinations, A375; format: cell-based; conditions: A-375, 72 h
Description: as §4

[10] = system: MX-1 human breast carcinoma; assay: tumor growth delay, MX-1 xenograft, combination with bevacizumab; format: in vivo; conditions: MX-1 in CD-1 Nu/Nu female mice, time to reach 1 g
Description: as §6

[11] = system: A2780 human ovarian carcinoma cell line; assay: cell proliferation (CellTiterGlo), single agents and combinations, A2780; format: cell-based; conditions: single agent, 72 hours
Description: as §1

[12] = 20 mg/kg oral on days 2, 4, 6, 8, 10, 12

Molecule: CC1(C)CCC(c2ccc(Cl)cc2)=C(CN2CCN(c3ccc(C(=O)NS(=O)(=O)c4ccc(N[C@H](CCN5CCOCC5)CSc5ccccc5)c(S(=O)(=O)C(F)(F)F)c4)cc3)CC2)C1 [ABT-263, Navitoclax]
- IC50 ([1]; L-363, single agent, 72 hours, Table 10, read-out: IC50 (μM) ABT-263): 7.3 µM

Molecule: NC(=O)c1cc(-c2ccnc(N)n2)[nH]c1-c1ccc(Cl)cc1Cl [Compound of formula (I), 5-(2-Amino-pyrimidin-4-yl)-2-(2,4-dichloro-phenyl)-1H-pyrrole-3-carboxylic acid amide]
- Toxicity ([2]; po, 20 mg/kg): 0/7
- IC50 ([3]; HCT-116, 72 h, read-out: IC50 (μM) Compound of formula (I)): 0.8 µM
- Toxicity ([4]; male, Balb Nu/Nu, mouse, in vivo, po, 20 mg/kg): 0/7
- Toxicity ([5]; female, CD-1 Nu/Nu, mouse, in vivo, po, 20 mg/kg): 0/7
- T-C [6, 12]: 4 days
- T-C ([7]; 20 mg/kg oral on days 2, 4, 6, 9, 11, 13): 10 days
- IC50 ([8]; Homo sapiens, MCF7, 72 h, read-out: IC50 (μM) Compound of formula (I), Mcf-7, single agent, Table 1 (gemcitabine experiment)): 1.1 µM
- IC50 ([8]; Homo sapiens, MCF7, 72 h, read-out: IC50 (μM) Compound of formula (I), Mcf-7, single agent, Table 2 (cisplatin experiment)): 1.7 µM
- IC50 ([8]; Homo sapiens, MCF7, 72 h, read-out: IC50 (μM) Compound of formula (I), Mcf-7, single agent, Table 4 (SN-38 experiment)): 0.77 µM
- IC50 ([8]; Homo sapiens, MCF7, 72 h, read-out: IC50 (μM) Compound of formula (I), Mcf-7, single agent, Table 5 (etoposide experiment)): 1.11 µM
- IC50 ([8]; Homo sapiens, MCF7, 72 h, read-out: IC50 (μM) Compound of formula (I), Mcf-7, single agent, Table 6 (paclitaxel experiment)): 0.67 µM
- IC50 ([8]; Homo sapiens, MCF7, 72 h, read-out: IC50 (μM) Compound of formula (I), Mcf-7, single agent, Table 7 (erlotinib experiment)): 1.87 µM
- IC50 ([8]; Homo sapiens, MCF7, 72 h, read-out: IC50 (μM) Compound of formula (I), Mcf-7, single agent, Table 8 (bortezomib experiment)): 0.767 µM
- IC50 ([9]; read-out: IC50 (μM) Compound of formula (I), A375, single agent, Table 11 (dacarbazine, sequential experiment)): 1.21 µM
- IC50 ([9]; read-out: IC50 (μM) Compound of formula (I), A375, single agent, Table 12 (dacarbazine, simultaneous experiment)): 0.86 µM
- T-C [10, 12]: 13 days
- IC50 ([1]; L-363, 72 h, read-out: IC50 (μM) Compound of formula (I)): 0.38 µM
- IC50 ([11]; Homo sapiens, Table 3 (cisplatin experiment), read-out: IC50 (μM) Compound of formula (I)): 0.52 µM

Molecule: CCc1c2c(nc3ccc(O)cc13)-c1cc3c(c(=O)n1C2)COC(=O)[C@]3(O)CC [SN38, SN-38]
- IC50 ([8]; Mcf-7, single agent, 72 hours, Table 4, read-out: IC50 (μM) SN38): 0.024 µM

Molecule: N.N.[Cl][Pt][Cl] [cisplatin]
- IC50 ([8]; Mcf-7, single agent, 72 hours, Table 2, read-out: IC50 (μM) cisplatin): 10.2 µM
- IC50 ([11]; Table 3, read-out: IC50 (μM) cisplatin): 3 µM

Molecule: CC(=O)O[C@@]12CO[C@@H]1C[C@H](O)[C@@]1(C)C(=O)[C@H](O)C3=C(C)[C@@H](OC(=O)[C@H](O)[C@@H](NC(=O)OC(C)(C)C)c4ccccc4)C[C@@](O)([C@@H](OC(=O)c4ccccc4)[C@H]21)C3(C)C [docetaxel]
- Toxicity ([2]; iv, 5 mg/kg): 0/7
- T-C ([7]; 5 mg/kg intravenous on days 1, 8, 15): 9 days

Molecule: CCc1c2c(nc3ccc(OC(=O)N4CCC(N5CCCCC5)CC4)cc13)-c1cc3c(c(=O)n1C2)COC(=O)[C@]3(O)CC [irinotecan]
- Toxicity ([4]; HCT-116 study, 45 mg/kg intravenous on days 1, 5, 9, body weight reduction): 0/7
- T-C ([6]; 45 mg/kg intravenous on days 1, 5, 9): 18 days

Molecule: bevacizumab
- Toxicity ([5]; MX-1 study, 20 mg/kg intravenous on days 1, 5, 9, 13, body weight reduction): 0/7
- T-C ([10]; 20 mg/kg intravenous on days 1, 5, 9, 13): 13 days

Next, values leading:

- IC50 ([8]; Homo sapiens, MCF7, Mcf-7, single agent, 72 hours, Table 1, read-out: IC50 (μM) Gemcitabine): 0.79 µM
Molecule: Nc1ccn([C@@H]2O[C@H](CO)[C@@H](O)C2(F)F)c(=O)n1 [Gemcitabine, gemcitabine]

- IC50 ([3]; HCT-116, HCT116, single agent, 72 hours, Table 9, read-out: IC50 (μM) bortezomib): 0.009 µM
- IC50 ([8]; Homo sapiens, MCF7, Mcf-7, single agent, 72 hours, Table 8, read-out: IC50 (μM) bortezomib): 0.011 µM
Molecule: CC(C)C[C@H](NC(=O)[C@H](Cc1ccccc1)NC(=O)c1cnccn1)B(O)O [bortezomib]

- IC50 ([9]; A375, single agent, Table 11 (sequential experiment), read-out: IC50 (μM) dacarbazine): 37 µM
- IC50 ([9]; A375, single agent, Table 12 (simultaneous experiment), read-out: IC50 (μM) dacarbazine): 83 µM
Molecule: CN(C)/N=N/c1[nH]cnc1C(N)=O [dacarbazine]

- IC50 ([8]; Homo sapiens, MCF7, Mcf-7, single agent, 72 hours, Table 7, read-out: IC50 (μM) erlotinib): 74.8 µM
Molecule: C#Cc1cccc(Nc2ncnc3cc(OCCOC)c(OCCOC)cc23)c1 [erlotinib]

- IC50 ([8]; Homo sapiens, MCF7, Mcf-7, single agent, 72 hours, Table 5, read-out: IC50 (μM) etoposide): 12.7 µM
Molecule: COc1cc([C@@H]2c3cc4c(cc3[C@@H](O[C@@H]3O[C@@H]5CO[C@@H](C)O[C@H]5[C@H](O)[C@H]3O)[C@H]3COC(=O)[C@H]23)OCO4)cc(OC)c1O [etoposide]

- IC50 ([8]; Homo sapiens, MCF7, Mcf-7, single agent, 72 hours, Table 6, read-out: IC50 (μM) paclitaxel): 0.008 µM
Molecule: CC(=O)O[C@H]1C(=O)[C@@]2(C)[C@H]([C@H](OC(=O)c3ccccc3)[C@]3(O)C[C@H](OC(=O)[C@H](O)[C@@H](NC(=O)c4ccccc4)c4ccccc4)C(C)=C1C3(C)C)[C@]1(OC(C)=O)CO[C@@H]1C[C@@H]2O [paclitaxel]
